Reference: the supplement of paper PMC10307832

Experiments:
Assay in all cases: relative viability (nuclei count vs DMSO), 5 days (fraction); higher = more cells survive
NCI-H1915 = test system: NCI-H1915
In short: (§1)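 Relative viability divides the nuclei count in treated wells by that in vehicle wells. Lung cancer cell lines were seeded in 1536-well plates, dosed by pin tool the next day, and fixed and stained after 5 days in one step with final 0.05% Triton X-100, 1% formaldehyde and 1 ug/ml Hoechst. Dosing was a single drug or a fixed anchor-drug dose plus five library-drug doses (not always all listed) in √10 steps, and values are medians of duplicate plates imaged at 4×.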

LC-2-ad = test system: LC-2-ad
In short: as §1

HCC-15 = test system: HCC-15
In short: as §1

NCI-H1993 = test system: NCI-H1993
In short: as §1

NCI-H2023 = test system: NCI-H2023
In short: as §1

NCI-H2085 = test system: NCI-H2085
In short: as §1

COR-L23 = test system: COR-L23
In short: as §1

NCI-H650 = test system: NCI-H650
In short: as §1

NCI-H1651 = test system: NCI-H1651
In short: as §1

HCC-78 = test system: HCC-78
In short: as §1

UMC-11 = test system: UMC-11
In short: as §1

CC1(C)CCC(c2ccc(Cl)cc2)=C(CN2CCN(c3ccc(C(=O)NS(=O)(=O)c4ccc(N[C@H](CCN5CCOCC5)CSc5ccccc5)c(S(=O)(=O)C(F)(F)F)c4)cc3)CC2)C1 [Navitoclax] + Nc1nc2[nH]cc(CCc3ccc(C(=O)N[C@@H](CCC(=O)O)C(=O)O)cc3)c2c(=O)[nH]1 [Pemetrexed] (partner 0.2 µM)
relative viability (NCI-H1915; first compound 0.005 µM): 0.495 | relative viability (NCI-H1915; first compound 0.01581 µM): 0.504 | relative viability (NCI-H1915; first compound 0.05 µM): 0.571 | relative viability (NCI-H1915; first compound 0.1581 µM): 0.439 | relative viability (NCI-H1915; first compound 0.5 µM): 0.401 | relative viability (LC-2-ad; first compound 0.005 µM): 0.268 | relative viability (LC-2-ad; first compound 0.01581 µM): 0.263 | relative viability (LC-2-ad; first compound 0.05 µM): 0.284 | relative viability (LC-2-ad; first compound 0.1581 µM): 0.295 | relative viability (LC-2-ad; first compound 0.5 µM): 0.275 | relative viability (HCC-15; first compound 0.005 µM): 0.227 | relative viability (HCC-15; first compound 0.01581 µM): 0.26 | relative viability (HCC-15; first compound 0.05 µM): 0.218 | relative viability (HCC-15; first compound 0.1581 µM): 0.228 | relative viability (HCC-15; first compound 0.5 µM): 0.229 | relative viability (NCI-H1993; first compound 0.005 µM): 0.616 | relative viability (NCI-H1993; first compound 0.01581 µM): 0.701 | relative viability (NCI-H1993; first compound 0.05 µM): 0.474 | relative viability (NCI-H1993; first compound 0.1581 µM): 0.653 | relative viability (NCI-H1993; first compound 0.5 µM): 0.677 | relative viability (NCI-H2023; first compound 0.005 µM): 0.229 | relative viability (NCI-H2023; first compound 0.01581 µM): 0.236 | relative viability (NCI-H2023; first compound 0.05 µM): 0.258 | relative viability (NCI-H2023; first compound 0.1581 µM): 0.214 | relative viability (NCI-H2023; first compound 0.5 µM): 0.201 | relative viability (NCI-H2085; first compound 0.005 µM): 0.812 | relative viability (NCI-H2085; first compound 0.01581 µM): 1.2 | relative viability (NCI-H2085; first compound 0.05 µM): 0.852 | relative viability (NCI-H2085; first compound 0.1581 µM): 0.931 | relative viability (NCI-H2085; first compound 0.5 µM): 0.894 | relative viability (COR-L23; first compound 0.005 µM): 0.208 | relative viability (COR-L23; first compound 0.01581 µM): 0.188 | relative viability (COR-L23; first compound 0.05 µM): 0.221 | relative viability (COR-L23; first compound 0.1581 µM): 0.179 | relative viability (COR-L23; first compound 0.5 µM): 0.201 | relative viability (NCI-H650; first compound 0.005 µM): 0.9 | relative viability (NCI-H650; first compound 0.01581 µM): 1.05 | relative viability (NCI-H650; first compound 0.05 µM): 0.908 | relative viability (NCI-H650; first compound 0.1581 µM): 0.95 | relative viability (NCI-H650; first compound 0.5 µM): 0.999 | relative viability (NCI-H1651; first compound 0.005 µM): 0.682 | relative viability (NCI-H1651; first compound 0.01581 µM): 0.552 | relative viability (NCI-H1651; first compound 0.05 µM): 0.503 | relative viability (NCI-H1651; first compound 0.1581 µM): 0.633 | relative viability (NCI-H1651; first compound 0.5 µM): 0.548 | relative viability (HCC-78; first compound 0.005 µM): 0.867 | relative viability (HCC-78; first compound 0.01581 µM): 0.878 | relative viability (HCC-78; first compound 0.05 µM): 0.921 | relative viability (HCC-78; first compound 0.1581 µM): 0.875 | relative viability (HCC-78; first compound 0.5 µM): 0.777 | relative viability (UMC-11; first compound 0.005 µM): 0.79 | relative viability (UMC-11; first compound 0.01581 µM): 0.822 | relative viability (UMC-11; first compound 0.05 µM): 0.821 | relative viability (UMC-11; first compound 0.1581 µM): 0.759
